Assay results taken from ChEMBL document CHEMBL4420066, “Aryl amine substituted quinoxaline used as anticancer drugs” (2017).
The source made the active and inactive calls. No cut-off for these calls is given here.

Assays:
[1] = species: Homo sapiens; assay: Activation of PP2A in human Hep3B cells assessed as minimal concentration causing increase in protein phosphatase activity incubated for 24 hrs using phosphopeptide substrate incubated for 10 mins by malachite green-phosphate complex assay; format: cell-based
[2] = species: Homo sapiens; assay: Activation of PP2A in human SKHEP1 cells assessed as minimal concentration causing increase in protein phosphatase activity incubated for 24 hrs using phosphopeptide substrate incubated for 10 mins by malachite green-phosphate complex assay; format: cell-based
[3] = species: Homo sapiens; assay: Inhibition of His-tagged recombinant human SET1 protein (1 to 290 amino acids) expressed in Escherichia coli interaction with N-terminal GST-tagged recombinant human PP2A-C (1 to 309 amino acids) assessed as minimal concentration causing disruption of SET-PP2Ac binding by SPR assay
[4] = species: Homo sapiens; assay: Activation of PP2A in human HA22T cells assessed as minimal concentration causing increase in protein phosphatase activity incubated for 24 hrs using phosphopeptide substrate incubated for 10 mins by malachite green-phosphate complex assay; format: cell-based
[5] = species: Homo sapiens; assay: Activation of PP2A in human PLC5 cells assessed as minimal concentration causing increase in protein phosphatase activity incubated for 24 hrs using phosphopeptide substrate incubated for 10 mins by malachite green-phosphate complex assay; format: cell-based
[6] = system: Homo sapiens; assay: Antitumor activity against human PLC5 cells xenografted in mouse assessed as reduction in tumor size at 10 mg/kg dosed for 4 weeks; format: functional, organism-based
[7] = species: Homo sapiens; assay: Cytotoxicity against human PLC5 cells assessed as reduction in cell viability at 0.5 to 4 uM incubated for 48 hrs by MTT assay; format: functional, cell-based
[8] = system: SK-HEP1; assay: Induction of apoptosis in human SKHEP1 cells assessed as accumulation at subG1 phase at 0.5 to 4 uM by flow cytometry; format: functional, cell-based
[9] = system: Hep 3B2; assay: Cytotoxicity against human Hep3B cells assessed as reduction in cell viability incubated for 48 hrs by MTT assay; format: functional, cell-based
[10] = species: Homo sapiens; assay: Cytotoxicity against human PLC5 cells assessed as reduction in cell viability incubated for 48 hrs by MTT assay; format: functional, cell-based
[11] = species: Homo sapiens; assay: Induction of apoptosis in human PLC5 cells assessed as accumulation at subG1 phase at 0.5 to 4 uM by flow cytometry; format: functional, cell-based
[12] = system: SK-HEP1; assay: Cytotoxicity against human SKHEP1 cells assessed as reduction in cell viability incubated for 48 hrs by MTT assay; format: functional, cell-based
[13] = system: HA22T cell line; assay: Cytotoxicity against human HA22T cells assessed as reduction in cell viability incubated for 48 hrs by MTT assay; format: functional, cell-based
[14] = system: HA22T cell line; assay: Induction of apoptosis in human HA22T cells assessed as accumulation at subG1 phase at 0.5 to 4 uM by flow cytometry; format: functional, cell-based
[15] = system: Hep 3B2; assay: Induction of apoptosis in human Hep3B cells assessed as accumulation at subG1 phase at 0.5 to 4 uM by flow cytometry; format: functional, cell-based

| Compound | MEC [3] [nM] | MEC [1] [nM] | MEC [2] [nM] | MEC [4] [nM] | MEC [5] [nM] | also measured |
| --- | --- | --- | --- | --- | --- | --- |
| Oc1ccc(Nc2nc3ccccc3nc2Nc2ccc(O)cc2)cc1 | < 100 | 100 to 200 | 100 to 200 | 100 to 200 | 100 to 200 |  |
| C#Cc1cccc(Nc2nc3ccc([N+](=O)[O-])cc3nc2Nc2cccc(C#C)c2)c1 | 50 to 100 | < 50 | < 50 | < 50 | < 50 |  |
| CNC(=O)c1cc(Oc2ccc(NC(=O)Nc3ccc(Cl)c(C(F)(F)F)c3)cc2)ccn1 |  |  |  |  |  | Activity [6]: Active; Activity [7]: Active |
| Clc1cc(Cl)cc(Nc2nc3ccccc3nc2Cl)c1 | 100 to 200 | > 200 | > 200 | > 200 | > 200 |  |
| C#Cc1cccc(Nc2ncnc3cc(OCCOC)c(OCCOC)cc23)c1 |  |  |  |  |  | Activity [8]: Active; Activity [9]: Active; Activity [10]: Active; Activity [11]: Active; Activity [12]: Active; Activity [13]: Active; Activity [14]: Active; Activity [15]: Active |
| FS(F)(F)(F)(F)c1ccc(Nc2nc3ccccc3nc2Nc2ccc(S(F)(F)(F)(F)F)cc2)cc1 | 50 | < 50 | < 50 | < 50 | < 50 |  |
| Nc1ccc2nc(Nc3ccc(C(F)(F)F)cc3)c(Nc3ccc(C(F)(F)F)cc3)nc2c1 | > 200 | > 200 | > 200 | > 200 | > 200 |  |
| FC(F)(F)Oc1ccc(Nc2nc3ccccc3nc2Nc2ccc(OC(F)(F)F)cc2)cc1 | < 100 | 50 to 100 | 50 to 100 | 50 to 100 | 50 to 100 |  |
| FC(F)(F)c1cc(Nc2nc3ccccc3nc2Cl)cc(C(F)(F)F)c1 | > 200 | > 200 | > 200 | > 200 | > 200 |  |
| COc1ccc(Nc2nc3ccc([N+](=O)[O-])cc3nc2Nc2cccc(O)c2)cc1 |  | < 100 | < 100 | < 100 | < 100 |  |
| FC(F)(F)c1cc(Nc2nc3ccccc3nc2Nc2ccc(Cl)c(C(F)(F)F)c2)ccc1Cl | < 100 | 100 to 200 | 100 to 200 | 100 to 200 | 100 to 200 |  |

Now from value to compound, other results behind:

| MEC [3] [nM] | Compound | MEC [1] [nM] | MEC [2] [nM] | MEC [4] [nM] | MEC [5] [nM] | also measured |
| --- | --- | --- | --- | --- | --- | --- |
| > 200 | O=[N+]([O-])c1cccc(Nc2nc3ccccc3nc2Cl)c1 | > 200 | > 200 | > 200 | > 200 |  |
| 100 to 200 | C#Cc1cccc(Nc2nc3cc([N+](=O)[O-])ccc3nc2Nc2ccc(OC)cc2)c1 | 100 to 200 | 100 to 200 | 100 to 200 | 100 to 200 |  |
| > 200 | COc1cccc(Nc2nc3ccc([N+](=O)[O-])cc3nc2Nc2cccc(OC)c2)c1 | > 200 | > 200 | > 200 | > 200 |  |
| > 200 | Clc1nc2ccccc2nc1NCc1ccccc1 | > 200 | > 200 | > 200 | > 200 |  |
| > 200 | FC(F)(F)Oc1ccc(Nc2nc3ccccc3nc2Cl)cc1 | > 200 | > 200 | > 200 | > 200 |  |
| > 200 | Clc1nc2ccccc2nc1Nc1ccccc1 | > 200 | > 200 | > 200 | > 200 |  |
| > 200 | O=[N+]([O-])c1ccc2nc(Nc3cccc(Br)c3)c(Nc3cccc(Br)c3)nc2c1 | > 200 | > 200 | > 200 | > 200 |  |
| > 200 | O=[N+]([O-])c1ccc2nc(Nc3cccc(C(F)(F)F)c3)c(Nc3cccc(C(F)(F)F)c3)nc2c1 | > 200 | > 200 | > 200 | > 200 |  |
| > 200 | FS(F)(F)(F)(F)c1ccc(Nc2nc3ccccc3nc2Cl)cc1 | > 200 | > 200 | > 200 | > 200 |  |
| > 200 | Clc1cccc(Nc2nc3ccccc3nc2Cl)c1 | > 200 | > 200 | > 200 | > 200 |  |
